Structures can show the parent of a compound that is named as a salt. One block for each molecule: values may come before it.
Experiments:
[1] = Accelerated test (40±2° C., relative humidity 75±5%, 6 months, sealed polyethylene film bag); type: physicochemical; conditions: for Appearance color / Purity (%) / Relevant substances: 40±2° C., RH 75±5%; for Purity (%) / Relevant substances: hydrochloride
Procedure: Revaprazan hydrochloride crystalline form I is sealed in a polyethylene film bag, is placed for 6 months under the conditions that the temperature is 40±2° C. and the relative humidity is 75±5%, and is respectively sampled at the end of the 1st Month, the 2nd Month, the 3rd Month and the 6^thMonth for detection; and the results are shown in Table 4. Revaprazan hydrochloride crystalline form II is sealed in a polyethylene film bag and is placed for 6 months under the conditions that the temperature is 40±2° C. and the relative humidity is 75±5%, and is respectively sampled at the end of the 1st Month, the 2nd Month, the 3rd Month and the 6th Month for detection; and the results are shown in Table 8. Revaprazan hydrochloride crystalline form III is sealed in a polyethylene film bag, is placed for 6 months under the conditions that the temperature is 40±2° C. and the relative humidity is 75±5%, and is sampled at the end of the 1st Month, the 2nd Month, the 3rd Month and the 6th Month for detection. Revaprazan hydrochloride crystalline form IV is sealed in a polyethylene film bag, is placed for 6 months under the conditions that the temperature is 40±2° C. and the relative humidity is 75±5%, and is sampled at the end of the 1st Month, the 2nd Month, the 3rd Month and the 6th Month for detection. Revaprazan hydrochloride crystalline form V is sealed in a polyethylene film bag and is placed for 6 months under the condition that the temperature is 40±2° C. and the relative humidity is 75±5%, and is sampled at the end of the 1st month, the 2nd month, the 3rd month and the 6th month for detection, and the results are shown in Table 20.

[2] = High humidity test (25° C., relative humidity 75±5%); type: physicochemical; conditions: for Appearance color / Purity (%) / Weight gain upon moisture absorption (%): 25° C., RH 75±5%
Procedure: Revaprazan hydrochloride crystalline form I is placed in an incubator of 25° C. (relative humidity of 75±5%), and is sampled on the 5th day and 10th day for detection. Revaprazan hydrochloride crystalline form II is placed in an incubator of 25° C. (relative humidity of 75±5%), and is sampled on the 5th day and 10th day for detection. Revaprazan hydrochloride polymorph III is placed in an incubator of 25° C. (relative humidity of 75±5%), and is sampled on the 5th day and the 10th day for detection. Revaprazan hydrochloride crystalline form IV is placed in an incubator of 25° C. Revaprazan hydrochloride crystal form 4 is placed in an incubator of 25° C. (the relative humidity is 75±5%), and is sampled on the 5th day and the 10th day for detection.

[3] = Light illumination test (intense light, 4500±500 Lx); type: physicochemical; conditions: for Appearance color / Loss on drying (%) / Purity (%) / Relevant substances: light 4500±500 Lx; for Loss on drying (%) / Purity (%) / Relevant substances: hydrochloride
Excerpt: Revaprazan hydrochloride crystalline form I is irradiated under such a condition that the light intensity is 4500±500 Lx, and is sampled on the 5th day and 10th day for detection, and the results are shown in Table 1. Revaprazan hydrochloride crystalline form II is irradiated under the condition that the light intensity is 4500±500Lx, and is sampled on the 5th day and 10th day for detection. Revaprazan hydrochloride polymorph III is irradiated under such a condition that the light intensity is 4500±500Lx, and is sampled on the 5th day and 10th day for detection. Revaprazan hydrochloride […] is irradiated under such a condition that the light intensity is 4500±500Lx, and is sampled on the 5th day and the 10th day for detection. Revaprazan hydrochloride crystalline form V is irradiated under the light intensity condition of 4500±500Lx; and is sampled on the 5th day and 10th day for detection.

[4] = High temperature test (60° C. incubator); type: physicochemical; conditions: for Appearance color / Loss on drying (%) / Purity (%) / Relevant substances: 60° C., hydrochloride
Procedure: Revaprazan hydrochloride crystalline form I is placed in a 60° C. incubator, and is sampled on the 5th day and 10th day for detection, and the results are shown in Table 2. Revaprazan hydrochloride crystalline form II is placed in a 60° C. incubator, and is sampled on the 5th day and 10th day for detection, and the results are shown in Table 6. Revaprazan hydrochloride polymorph III is placed in an incubator of 60° C., and is sampled on the 5th day and the 10th day for detection. Revaprazan hydrochloride crystalline form IV is placed in an incubator of 60° C., and is sampled on the 5th day and the 10th day for detection. Revaprazan hydrochloride crystal form 4 is placed in an incubator of 60° C.; and is sampled on the 5th day and the 10th day for detection, and the results are shown in Table 23.

[5] = general statement in background art; cited from earlier work

- Appearance color ([1]; 1st month): White powder
- Purity (%) ([1]; 1st month): 99.98%
- Relevant substances ([1]; 1st month): Undetected
- Appearance color ([1]; 2nd month): White powder
- Purity (%) ([1]; 2nd month): 99.95%
- Relevant substances ([1]; 2nd month): Undetected
- Appearance color ([1]; 3rd month): White powder
- Purity (%) ([1]; 3rd month): 99.97%
- Relevant substances ([1]; 3rd month): Undetected
- Appearance color ([1]; 6th month): White powder
- Purity (%) ([1]; 6th month): 99.94%
- Relevant substances ([1]; 6th month): Undetected
- Appearance color ([1]; Month 0): White powder
- Purity (%) ([1]; Month 0): 99.94%
- Relevant substances ([1]; Month 0): Undetected
- Stability (conclusion in words) ([1]; accelerated test, no obvious changes in appearance color, purity, relevant substances): stable
- Appearance color ([2]; 5th day): White powder
- Purity (%) ([2]; 5th day, hydrochloride): 99.94%
- Weight gain upon moisture absorption (%) ([2]; 5th day, hydrochloride): 0.42%
- Appearance color ([2]; 10th day): White powder
- Purity (%) ([2]; 10th day, hydrochloride): 99.96%
- Weight gain upon moisture absorption (%) ([2]; 10th day, hydrochloride): 0.66%
- Appearance color ([2]; Day 0): White powder
- Weight gain upon moisture absorption (%) ([2]; Day 0): 0%
- Purity (%) ([2]; Day 0, hydrochloride): 99.94%
- Weight gain upon moisture absorption (in words) ([2]; high humidity condition): slight weight gain
- Stability (conclusion in words) ([2]; high humidity, no obvious changes in appearance color, purity, relevant substances): stable
- Stability (conclusion in words) ([3]; intense light illumination, no obvious changes in appearance color, loss on drying, purity, relevant substances): stable
- Appearance color ([3]; 5th day): White powder
- Loss on drying (%) ([3]; 5th day): 0.27%
- Purity (%) ([3]; 5th day): 99.95%
- Relevant substances ([3]; 5th day): Undetected
- Appearance color ([3]; 10th day): White powder
- Loss on drying (%) ([3]; 10th day): 0.30%
- Purity (%) ([3]; 10th day): 99.95%
- Relevant substances ([3]; 10th day): Undetected
- Appearance color ([3]; Day 0): White powder
- Loss on drying (%) ([3]; Day 0): 0.24%
- Purity (%) ([3]; Day 0): 99.94%
- Relevant substances ([3]; Day 0): Undetected
- Appearance color ([4]; 5th day): White powder
- Loss on drying (%) ([4]; 5th day): 0.30%
- Purity (%) ([4]; 5th day): 99.95%
- Relevant substances ([4]; 5th day): Undetected
- Appearance color ([4]; 10th day): White powder
- Loss on drying (%) ([4]; 10th day): 0.32%
- Purity (%) ([4]; 10th day): 99.92%
- Relevant substances ([4]; 10th day): Undetected
- Appearance color ([4]; Day 0): White powder
- Loss on drying (%) ([4]; Day 0): 0.29%
- Purity (%) ([4]; Day 0): 99.94%
- Relevant substances ([4]; Day 0): Undetected
- Stability (conclusion in words) ([4]; high temperature, no obvious changes in appearance color, loss on drying, purity, relevant substances): stable
SMILES: Cc1nc(Nc2ccc(F)cc2)nc(N2CCc3ccccc3C2C)c1C (single isomer, unassigned) [revaprazan hydrochloride crystalline form V]

SMILES: Cc1nc(Nc2ccc(F)cc2)nc(N2CCc3ccccc3C2C)c1C (stereo not drawn) [Revaprazan hydrochloride]
- Time to maximum plasma concentration [5]: about 1 h

Source: patent US20170334877A1, “REVAPRAZAN HYDROCHLORIDE POLYMORPHS AND PREPARATION METHOD THEREFOR” (JIANGSU TASLY DIYI PHARMACEUTICAL CO., LTD., priority 2014, published 2017)
